Measured values: publication PMC9592870 (Molecular Diversity, 2022)

Columns and labels:
Vero cells = details: CC50 Vero cells / MIC Mtb H37Rv
M. fortuitum ATCC 6841 = test: Antimycobacterial broth microdilution MIC, non-tuberculous mycobacteria; type: cell-based; details: 48 h
M. chelonae ATCC 35752 = test: as above; type: cell-based; details: 48 h

| SMILES | SI selectivity index (CC50/MIC) (Vero cells) | MIC M. fortuitum ATCC 6841 (M. fortuitum ATCC 6841) | MIC M. chelonae ATCC 35752 (M. chelonae ATCC 35752) |
| --- | --- | --- | --- |
| COC(=O)c1cc(-c2cccc(NC(=O)Nc3ccc(Cl)cc3Cl)c2)on1 [4r, Methyl 5-(3-(3-(2,4-dichlorophenyl)ureido)phenyl)isoxazole-3-carboxylate] | > 50 | – | – |
| COC(=O)c1cc(-c2ccc(NC(=O)Nc3ccc(Cl)c(Cl)c3)cc2)on1 [4tb, Methyl 5-(4-(3-(3,4-dichlorophenyl)ureido)phenyl)isoxazole-3-carboxylate] | > 80 | – | – |
| COC(=O)c1cc(-c2cccc(NC(=O)Nc3ccc(F)cc3)c2)on1 [4j, Methyl 5-(3-(3-(4-fluorophenyl)ureido)phenyl)isoxazole-3-carboxylate] | > 200 | – | – |
| COC(=O)c1cc(-c2cccc(NC(=S)Nc3ccc(F)cc3F)c2)on1 [5k, Methyl 5-(3-(3-(2,4-difluorophenyl)thioureido)phenyl)isoxazole-3-carboxylate] | – | weaker inhibition | weaker inhibition |
| COC(=O)c1cc(-c2cccc(NC(=S)Nc3ccc(Cl)cc3)c2)on1 [5f, Methyl 5-(3-(3-(4-chlorophenyl)thioureido)phenyl)isoxazole-3-carboxylate] | > 50 | – | – |
| COC(=O)c1cc(-c2cccc(NC(=S)Nc3ccc(F)c(Cl)c3)c2)on1 [5m, Methyl 5-(3-(3-(3-chloro-4-fluorophenyl)thioureido)phenyl)isoxazole-3-carboxylate] | – | weaker inhibition | weaker inhibition |
| COC(=O)c1cc(-c2cccc(NC(=O)Nc3ccccc3OC)c2)on1 [4d, Methyl 5-(3-(3-(2-methoxyphenyl)ureido)phenyl)isoxazole-3-carboxylate] | < 20 | – | – |
| COC(=O)c1cc(-c2cccc(NC(=S)Nc3ccc(C#N)cc3)c2)on1 [5i, Methyl 5-(3-(3-(4-cyanophenyl)thioureido)phenyl)isoxazole-3-carboxylate] | – | weaker inhibition | weaker inhibition |
| COC(=O)c1cc(-c2cccc(NC(=O)Nc3ccc(C(F)(F)F)cc3)c2)on1 [4n, Methyl 5-(3-(3-(4-(trifluoromethyl)phenyl)ureido)phenyl)isoxazole-3-carboxylate] | > 50 | – | – |
| COC(=O)c1cc(-c2cccc(NC(=O)Nc3cc(OC)ccc3OC)c2)on1 [4w, Methyl 5-(3-(3-(2,5-dimethoxyphenyl)ureido)phenyl)isoxazole-3-carboxylate] | < 20 | – | – |
